Biological target: T1, BiGalHexNAcP (Bifidobacterium longum, UniProt A0ACD7UTG9)
T1 construct: gene BLIJ_2251
Test: one-pot two-enzyme synthesis of disaccharide (reverse phosphorolysis)
Assay type: biochemical
Details: acceptor; donor galactose 1-phosphate formed in situ by BiGalK; isolated on semi-preparative scale

T1 sequence (A0ACD7UTG9 entry or part of it): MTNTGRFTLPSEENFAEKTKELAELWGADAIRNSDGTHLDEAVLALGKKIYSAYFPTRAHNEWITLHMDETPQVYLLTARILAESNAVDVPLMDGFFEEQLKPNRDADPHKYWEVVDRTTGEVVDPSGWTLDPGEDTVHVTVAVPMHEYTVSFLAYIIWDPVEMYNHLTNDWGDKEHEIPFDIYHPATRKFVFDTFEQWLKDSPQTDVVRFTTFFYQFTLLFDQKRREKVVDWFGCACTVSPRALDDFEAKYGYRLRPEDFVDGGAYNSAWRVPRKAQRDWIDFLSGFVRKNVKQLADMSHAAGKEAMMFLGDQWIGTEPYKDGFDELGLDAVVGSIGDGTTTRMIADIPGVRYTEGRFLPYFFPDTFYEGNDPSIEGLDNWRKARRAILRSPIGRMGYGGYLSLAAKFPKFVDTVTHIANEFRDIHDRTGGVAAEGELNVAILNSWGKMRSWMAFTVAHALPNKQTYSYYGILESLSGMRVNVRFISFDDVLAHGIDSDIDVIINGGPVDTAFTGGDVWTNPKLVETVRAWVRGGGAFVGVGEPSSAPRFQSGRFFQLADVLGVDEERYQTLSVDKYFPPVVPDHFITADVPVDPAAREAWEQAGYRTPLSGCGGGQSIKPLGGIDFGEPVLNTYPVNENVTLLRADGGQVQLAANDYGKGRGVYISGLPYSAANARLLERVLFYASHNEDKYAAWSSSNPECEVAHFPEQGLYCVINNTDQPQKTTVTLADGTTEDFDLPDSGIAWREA

CC(=O)N[C@H]1[C@H](OCCCN=[N+]=[N-])O[C@H](CO)[C@@H](O)[C@@H]1O[C@@H]1O[C@H](CO)[C@H](O)[C@H](O)[C@H]1O [compound 15]
one-pot two-enzyme synthesis of disaccharide (reverse phosphorolysis): Lacto-N-biose and fluorinated derivatives were efficiently synthesized on semi-preparative scale

— article PMC8179109, “Introducing affinity and selectivity into galectin-targeting nanoparticles with fluorinated glycan ligands” (Chemical Science, 2020)
